# Data from ChEMBL document CHEMBL4507277.
# Legend:
# [1] = biological target: Mitogen-activated protein kinase 6 (Homo sapiens) (UniProt Q16659); conditions: Compound concentration 1000.0 nM
# [2] = biological target: Mitogen-activated protein kinase kinase kinase 1 (Homo sapiens) (UniProt Q13233); conditions: Compound concentration 1000.0 nM
# [3] = biological target: Serine/threonine-protein kinase STK11 (Homo sapiens) (UniProt Q15831); conditions: Compound concentration 1000.0 nM
# [4] = biological target: Mitogen-activated protein kinase kinase kinase 6 (Homo sapiens) (UniProt O95382); conditions: Compound concentration 1000.0 nM
# [5] = biological target: Rho-associated protein kinase 2 (Homo sapiens) (UniProt O75116); conditions: Compound concentration 1000.0 nM
# [6] = biological target: Serine/threonine-protein kinase Nek7 (Homo sapiens) (UniProt Q8TDX7); conditions: Compound concentration 1000.0 nM
# [7] = biological target: SNF-related serine/threonine-protein kinase (Homo sapiens) (UniProt Q9NRH2); conditions: Compound concentration 1000.0 nM
# [8] = biological target: Mitogen-activated protein kinase 12 (Homo sapiens) (UniProt P53778); conditions: Compound concentration 1000.0 nM
# [9] = tested on: Epidermal growth factor receptor (Homo sapiens), P00533 [T790M]; conditions: Compound concentration 1000.0 nM
# [10] = biological target: GABA-A receptor; anion channel (Rattus norvegicus) (UniProt O09028+P15431+P18506+P18508+P19969+P20236+P23574+P23576+P28471+P28473+P30191+P62813+P63079+P63138+Q91ZM7+Q9ES14); conditions: Compound concentration 10.0 uM
# [11] = tested on: Phosphatidylinositol 4,5-bisphosphate 3-kinase catalytic subunit alpha isoform (Homo sapiens), P42336 [M1043I]; conditions: Compound concentration 1000.0 nM
# [12] = biological target: Serine/threonine-protein kinase DCLK1 (Homo sapiens) (UniProt O15075); conditions: Compound concentration 1000.0 nM
# [13] = biological target: Serine/threonine-protein kinase tousled-like 1 (Homo sapiens) (UniProt Q9UKI8); conditions: Compound concentration 1000.0 nM
# [14] = biological target: Mitogen-activated protein kinase kinase kinase 13 (Homo sapiens) (UniProt O43283); conditions: Compound concentration 1000.0 nM
# Sequence of Mitogen-activated protein kinase kinase kinase 13 (Homo sapiens) (O43283 whole entry): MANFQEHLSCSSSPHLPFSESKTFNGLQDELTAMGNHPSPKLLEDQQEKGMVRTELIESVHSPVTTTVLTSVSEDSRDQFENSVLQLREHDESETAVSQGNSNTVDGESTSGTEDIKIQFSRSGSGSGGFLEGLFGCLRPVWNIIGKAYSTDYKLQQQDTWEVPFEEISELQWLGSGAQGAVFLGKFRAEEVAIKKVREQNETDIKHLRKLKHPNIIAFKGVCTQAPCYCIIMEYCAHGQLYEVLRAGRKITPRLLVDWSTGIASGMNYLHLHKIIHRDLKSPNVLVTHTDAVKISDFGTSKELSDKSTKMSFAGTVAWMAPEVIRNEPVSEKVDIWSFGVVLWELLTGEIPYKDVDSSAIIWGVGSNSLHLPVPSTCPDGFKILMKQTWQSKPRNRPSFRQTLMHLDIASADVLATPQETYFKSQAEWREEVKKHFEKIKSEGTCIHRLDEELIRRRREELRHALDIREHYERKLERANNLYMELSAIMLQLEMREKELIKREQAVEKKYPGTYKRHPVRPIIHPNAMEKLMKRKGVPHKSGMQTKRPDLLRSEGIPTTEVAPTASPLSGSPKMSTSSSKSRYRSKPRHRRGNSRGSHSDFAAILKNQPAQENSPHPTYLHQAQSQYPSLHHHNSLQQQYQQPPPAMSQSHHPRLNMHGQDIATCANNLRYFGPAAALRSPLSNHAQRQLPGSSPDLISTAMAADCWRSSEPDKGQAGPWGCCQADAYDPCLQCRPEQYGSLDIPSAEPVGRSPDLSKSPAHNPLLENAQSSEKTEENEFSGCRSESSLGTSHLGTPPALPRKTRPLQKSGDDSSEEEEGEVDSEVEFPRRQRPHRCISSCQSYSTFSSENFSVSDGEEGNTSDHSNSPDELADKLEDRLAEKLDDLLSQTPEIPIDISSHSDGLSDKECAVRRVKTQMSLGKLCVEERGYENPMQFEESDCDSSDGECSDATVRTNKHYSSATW
# [15] = biological target: Serine/threonine-protein kinase MRCK alpha (Homo sapiens) (UniProt Q5VT25); conditions: Compound concentration 1000.0 nM
# [16] = tested on: Receptor-type tyrosine-protein kinase FLT3 (Homo sapiens), P36888 [R834Q]; conditions: Compound concentration 1000.0 nM
# [17] = biological target: Platelet-derived growth factor receptor beta (Homo sapiens) (UniProt P09619); conditions: Compound concentration 1000.0 nM
# [18] = biological target: Histamine H1 receptor (Homo sapiens) (UniProt P35367); conditions: Compound concentration 10.0 uM
# [19] = biological target: Muscle, skeletal receptor tyrosine-protein kinase (Homo sapiens) (UniProt O15146); conditions: Compound concentration 1000.0 nM
# [20] = tested on: Receptor-type tyrosine-protein kinase FLT3 (Homo sapiens), P36888 [D835Y]; conditions: Compound concentration 1000.0 nM
# [21] = biological target: Tyrosine-protein kinase Mer (Homo sapiens) (UniProt Q12866); conditions: Compound concentration 1000.0 nM
# Sequence of Tyrosine-protein kinase Mer (Homo sapiens) (Q12866 whole entry): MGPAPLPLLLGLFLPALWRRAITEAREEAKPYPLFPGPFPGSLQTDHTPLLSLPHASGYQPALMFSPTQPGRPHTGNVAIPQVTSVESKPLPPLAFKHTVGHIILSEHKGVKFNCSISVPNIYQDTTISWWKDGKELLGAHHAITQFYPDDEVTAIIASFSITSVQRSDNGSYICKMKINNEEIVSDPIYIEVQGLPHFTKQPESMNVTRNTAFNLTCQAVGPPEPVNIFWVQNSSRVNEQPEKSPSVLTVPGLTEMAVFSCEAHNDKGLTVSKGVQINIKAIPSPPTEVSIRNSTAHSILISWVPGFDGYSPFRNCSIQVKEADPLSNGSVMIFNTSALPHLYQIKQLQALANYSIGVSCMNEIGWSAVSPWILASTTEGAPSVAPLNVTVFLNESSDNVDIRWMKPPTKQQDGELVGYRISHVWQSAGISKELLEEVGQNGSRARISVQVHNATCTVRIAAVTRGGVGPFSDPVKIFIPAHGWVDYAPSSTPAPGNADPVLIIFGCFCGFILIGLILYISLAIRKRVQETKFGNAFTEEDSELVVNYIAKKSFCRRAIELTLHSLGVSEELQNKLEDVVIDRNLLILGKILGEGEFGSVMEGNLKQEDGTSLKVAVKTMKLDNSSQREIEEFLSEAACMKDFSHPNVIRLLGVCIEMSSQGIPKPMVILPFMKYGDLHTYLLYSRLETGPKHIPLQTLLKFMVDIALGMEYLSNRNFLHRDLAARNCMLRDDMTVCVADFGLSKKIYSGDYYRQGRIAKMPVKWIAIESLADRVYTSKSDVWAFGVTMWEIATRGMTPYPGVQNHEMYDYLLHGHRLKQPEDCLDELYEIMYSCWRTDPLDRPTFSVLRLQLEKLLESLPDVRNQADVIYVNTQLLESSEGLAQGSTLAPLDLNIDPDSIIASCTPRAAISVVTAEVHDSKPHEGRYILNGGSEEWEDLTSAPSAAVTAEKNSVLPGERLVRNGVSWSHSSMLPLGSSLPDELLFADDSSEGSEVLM
# [22] = biological target: Myosin light chain kinase family member 4 (Homo sapiens) (UniProt Q86YV6); conditions: Compound concentration 1000.0 nM
# [23] = biological target: Serine/threonine-protein kinase 33 (Homo sapiens) (UniProt Q9BYT3); conditions: Compound concentration 1000.0 nM
# [24] = biological target: Phosphatidylinositol 4,5-bisphosphate 3-kinase catalytic subunit alpha isoform (Homo sapiens) (UniProt P42336); conditions: Compound concentration 1000.0 nM
# [25] = tested on: Hepatocyte growth factor receptor (Homo sapiens), P08581 [M1250T]; conditions: Compound concentration 1000.0 nM
# [26] = biological target: Serine/threonine-protein kinase BRSK1 (Homo sapiens) (UniProt Q8TDC3); conditions: Compound concentration 1000.0 nM
# [27] = biological target: Homeodomain-interacting protein kinase 4 (Homo sapiens) (UniProt Q8NE63); conditions: Compound concentration 1000.0 nM
# [28] = biological target: Tyrosine-protein kinase JAK2 (Homo sapiens) (UniProt O60674); conditions: Compound concentration 1000.0 nM
# [29] = biological target: Serine/threonine-protein kinase PAK 2 (Homo sapiens) (UniProt Q13177); conditions: Compound concentration 1000.0 nM
# Sequence of Serine/threonine-protein kinase PAK 2 (Homo sapiens) (Q13177 whole entry): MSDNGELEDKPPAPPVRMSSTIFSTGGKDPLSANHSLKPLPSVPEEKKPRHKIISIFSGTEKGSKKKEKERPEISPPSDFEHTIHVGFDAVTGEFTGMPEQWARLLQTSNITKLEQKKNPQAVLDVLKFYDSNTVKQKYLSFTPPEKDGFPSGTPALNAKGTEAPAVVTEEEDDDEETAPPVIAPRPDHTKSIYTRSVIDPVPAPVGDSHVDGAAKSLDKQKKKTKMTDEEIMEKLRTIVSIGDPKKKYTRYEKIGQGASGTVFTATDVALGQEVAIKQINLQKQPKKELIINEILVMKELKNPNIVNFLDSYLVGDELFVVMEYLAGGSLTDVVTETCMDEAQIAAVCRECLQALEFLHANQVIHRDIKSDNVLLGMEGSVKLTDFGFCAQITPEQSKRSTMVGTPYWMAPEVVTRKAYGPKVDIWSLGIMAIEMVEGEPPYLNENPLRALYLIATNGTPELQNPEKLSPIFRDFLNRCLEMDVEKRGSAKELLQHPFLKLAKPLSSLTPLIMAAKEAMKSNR
# [30] = biological target: Dual specificity tyrosine-phosphorylation-regulated kinase 1A (Homo sapiens) (UniProt Q13627); conditions: Compound concentration 1000.0 nM
# [31] = biological target: Serine/threonine-protein kinase Nek10 (Homo sapiens) (UniProt Q6ZWH5); conditions: Compound concentration 1000.0 nM
# Sequence of Serine/threonine-protein kinase Nek10 (Homo sapiens) (Q6ZWH5 whole entry): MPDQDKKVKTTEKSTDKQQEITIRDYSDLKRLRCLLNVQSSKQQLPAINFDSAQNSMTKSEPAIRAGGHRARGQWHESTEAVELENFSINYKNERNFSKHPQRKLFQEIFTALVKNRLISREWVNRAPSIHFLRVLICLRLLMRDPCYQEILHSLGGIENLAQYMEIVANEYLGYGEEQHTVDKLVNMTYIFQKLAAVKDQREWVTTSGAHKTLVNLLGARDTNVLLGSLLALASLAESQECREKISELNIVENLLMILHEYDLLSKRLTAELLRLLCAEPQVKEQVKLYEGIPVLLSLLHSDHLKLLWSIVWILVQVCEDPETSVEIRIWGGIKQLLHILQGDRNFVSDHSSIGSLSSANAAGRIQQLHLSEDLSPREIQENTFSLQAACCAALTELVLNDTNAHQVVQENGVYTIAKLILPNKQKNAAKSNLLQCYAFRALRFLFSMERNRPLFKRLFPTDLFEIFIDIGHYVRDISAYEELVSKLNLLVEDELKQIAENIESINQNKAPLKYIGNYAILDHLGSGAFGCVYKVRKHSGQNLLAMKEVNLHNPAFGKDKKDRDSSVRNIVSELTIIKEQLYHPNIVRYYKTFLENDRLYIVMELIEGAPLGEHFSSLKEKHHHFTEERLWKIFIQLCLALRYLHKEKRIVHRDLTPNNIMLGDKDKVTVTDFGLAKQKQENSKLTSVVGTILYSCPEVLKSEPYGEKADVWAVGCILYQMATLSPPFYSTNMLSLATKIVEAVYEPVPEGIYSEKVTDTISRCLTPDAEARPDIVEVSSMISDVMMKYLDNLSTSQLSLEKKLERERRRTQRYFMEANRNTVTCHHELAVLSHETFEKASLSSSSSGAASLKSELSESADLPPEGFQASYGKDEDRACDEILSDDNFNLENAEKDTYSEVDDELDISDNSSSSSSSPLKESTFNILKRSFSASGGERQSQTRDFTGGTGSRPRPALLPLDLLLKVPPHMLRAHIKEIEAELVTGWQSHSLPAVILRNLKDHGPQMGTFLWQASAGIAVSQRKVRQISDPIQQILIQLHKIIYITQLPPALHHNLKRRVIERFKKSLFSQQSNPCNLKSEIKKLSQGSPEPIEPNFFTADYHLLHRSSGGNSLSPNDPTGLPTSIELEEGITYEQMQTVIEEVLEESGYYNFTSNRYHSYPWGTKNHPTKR
# [32] = biological target: Serine/threonine-protein kinase 3 (Homo sapiens) (UniProt Q13188); conditions: Compound concentration 1000.0 nM
# [33] = tested on: ALK tyrosine kinase receptor (Homo sapiens), Q9UM73 [C1156Y]; conditions: Compound concentration 1000.0 nM
# [34] = biological target: Mitogen-activated protein kinase kinase kinase 3 (Homo sapiens) (UniProt Q99759); conditions: Compound concentration 1000.0 nM
# [35] = biological target: Homeodomain-interacting protein kinase 3 (Homo sapiens) (UniProt Q9H422); conditions: Compound concentration 1000.0 nM
# [36] = biological target: Alpha-2B adrenergic receptor (Homo sapiens) (UniProt P18089); conditions: Compound concentration 10.0 uM
# Sequence of Alpha-2B adrenergic receptor (Homo sapiens) (P18089 whole entry): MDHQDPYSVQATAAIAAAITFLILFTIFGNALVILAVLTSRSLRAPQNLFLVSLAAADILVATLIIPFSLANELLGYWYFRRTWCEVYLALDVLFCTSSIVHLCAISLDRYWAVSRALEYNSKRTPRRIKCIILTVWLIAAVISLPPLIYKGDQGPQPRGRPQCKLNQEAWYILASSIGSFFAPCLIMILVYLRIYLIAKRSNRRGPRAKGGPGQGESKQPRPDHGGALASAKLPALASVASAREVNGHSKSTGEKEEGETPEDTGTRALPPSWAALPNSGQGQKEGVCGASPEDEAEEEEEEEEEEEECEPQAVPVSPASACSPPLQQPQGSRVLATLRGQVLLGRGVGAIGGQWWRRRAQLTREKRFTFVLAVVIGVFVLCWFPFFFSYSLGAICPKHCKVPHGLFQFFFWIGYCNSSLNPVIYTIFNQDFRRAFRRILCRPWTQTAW
# [37] = biological target: MAP kinase-interacting serine/threonine-protein kinase 1 (Homo sapiens) (UniProt Q9BUB5); conditions: Compound concentration 1000.0 nM
# Sequence of MAP kinase-interacting serine/threonine-protein kinase 1 (Homo sapiens) (Q9BUB5 whole entry, looked up): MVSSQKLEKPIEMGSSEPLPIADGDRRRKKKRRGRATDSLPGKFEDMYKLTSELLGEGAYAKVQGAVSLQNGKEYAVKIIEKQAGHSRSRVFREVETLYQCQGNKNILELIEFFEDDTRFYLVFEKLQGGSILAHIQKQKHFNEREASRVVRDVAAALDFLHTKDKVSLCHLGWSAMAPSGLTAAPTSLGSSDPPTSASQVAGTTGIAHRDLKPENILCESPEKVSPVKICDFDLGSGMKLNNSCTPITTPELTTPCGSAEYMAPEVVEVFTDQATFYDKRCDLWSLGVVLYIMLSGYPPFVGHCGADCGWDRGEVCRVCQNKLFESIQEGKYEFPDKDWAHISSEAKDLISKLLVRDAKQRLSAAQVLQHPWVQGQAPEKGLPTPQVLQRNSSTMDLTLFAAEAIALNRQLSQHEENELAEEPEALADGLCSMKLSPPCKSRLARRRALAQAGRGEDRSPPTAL
# [38] = biological target: TRAF2 and NCK-interacting protein kinase (Homo sapiens) (UniProt Q9UKE5); conditions: Compound concentration 1000.0 nM
# [39] = biological target: LIM domain kinase 1 (Homo sapiens) (UniProt P53667); conditions: Compound concentration 1000.0 nM
# [40] = biological target: Rhodopsin kinase GRK7 (Homo sapiens) (UniProt Q8WTQ7); conditions: Compound concentration 1000.0 nM
# [41] = biological target: MAP kinase-activated protein kinase 5 (Homo sapiens) (UniProt Q8IW41); conditions: Compound concentration 1000.0 nM
# Sequence of MAP kinase-activated protein kinase 5 (Homo sapiens) (Q8IW41 whole entry): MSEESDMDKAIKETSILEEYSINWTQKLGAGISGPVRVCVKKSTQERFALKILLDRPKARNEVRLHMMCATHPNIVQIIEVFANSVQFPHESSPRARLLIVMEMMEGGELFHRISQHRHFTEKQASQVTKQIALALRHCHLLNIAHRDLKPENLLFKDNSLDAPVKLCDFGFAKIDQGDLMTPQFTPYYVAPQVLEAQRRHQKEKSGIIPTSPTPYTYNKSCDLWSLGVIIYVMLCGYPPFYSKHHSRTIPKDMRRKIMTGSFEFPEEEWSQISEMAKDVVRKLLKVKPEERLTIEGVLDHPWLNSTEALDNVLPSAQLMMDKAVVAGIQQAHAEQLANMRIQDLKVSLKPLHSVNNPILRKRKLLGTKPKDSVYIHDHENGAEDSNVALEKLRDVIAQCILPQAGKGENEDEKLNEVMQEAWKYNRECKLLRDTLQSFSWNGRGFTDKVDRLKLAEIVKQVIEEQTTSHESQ
# [42] = tested on: Epidermal growth factor receptor (Homo sapiens), P00533 [G719S]; conditions: Compound concentration 1000.0 nM
# [43] = biological target: Fibroblast growth factor receptor 2 (Homo sapiens) (UniProt P21802); conditions: Compound concentration 1000.0 nM
# [44] = biological target: D(1B) dopamine receptor (Homo sapiens) (UniProt P21918); conditions: Compound concentration 10.0 uM
smiles,measurement,setting,value
CCS(=O)(=O)c1cc2cc(C[C@@](O)(CC(C)(C)c3ccc(F)cc3C(N)=O)C(F)(F)F)[nH]c2cn1,residual activity,[1],72%
same,residual activity,[2],51%
same,residual activity,[3],100%
same,residual activity,[4],100%
same,residual activity,[5],76%
same,residual activity,[6],95%
same,residual activity,[7],98%
same,residual activity,[8],100%
same,residual activity,[9],88%
same,inhibition,[10],3.48%
same,residual activity,[11],99%
same,residual activity,[12],100%
same,residual activity,[13],0%
same,residual activity,[14],82%
same,residual activity,[15],100%
same,residual activity,[16],78%
same,residual activity,[17],100%
same,inhibition,[18],6.19%
same,residual activity,[19],60%
same,residual activity,[20],99%
same,residual activity,[21],100%
same,residual activity,[22],100%
same,residual activity,[23],91%
same,residual activity,[24],100%
same,residual activity,[25],90%
same,residual activity,[26],73%
same,residual activity,[27],100%
same,residual activity,[28],100%
same,residual activity,[29],94%
same,residual activity,[30],66%
same,residual activity,[31],88%
same,residual activity,[32],100%
same,residual activity,[33],100%
same,residual activity,[34],90%
same,residual activity,[35],65%
same,inhibition,[36],6.5%
same,residual activity,[37],46%
same,residual activity,[38],97%
same,residual activity,[39],100%
same,residual activity,[40],95%
same,residual activity,[41],81%
same,residual activity,[42],100%
same,residual activity,[43],95%
same,inhibition,[44],32.4%
CCS(=O)(=O)c1cc2cc(C[C@](O)(CC(C)(C)c3ccc(F)cc3C(N)=O)C(F)(F)F)[nH]c2cn1,residual activity,[1],100%
same,residual activity,[2],87%
same,residual activity,[3],100%
same,residual activity,[4],55%
same,residual activity,[5],100%
same,residual activity,[6],100%
same,residual activity,[7],100%
same,residual activity,[8],100%
same,residual activity,[9],78%
same,inhibition,[10],-1.62%
same,residual activity,[11],88%
same,residual activity,[12],99%
same,residual activity,[13],75%
same,residual activity,[14],90%
same,residual activity,[15],89%
same,residual activity,[16],100%
same,residual activity,[17],100%
same,inhibition,[18],4.27%
same,residual activity,[19],94%
same,residual activity,[20],100%
same,residual activity,[21],100%
same,residual activity,[22],100%
same,residual activity,[23],97%
same,residual activity,[24],81%
same,residual activity,[25],100%
same,residual activity,[26],99%
same,residual activity,[27],100%
same,residual activity,[28],53%
same,residual activity,[29],86%
same,residual activity,[30],100%
same,residual activity,[31],100%
same,residual activity,[32],97%
same,residual activity,[33],96%
same,residual activity,[34],92%
same,residual activity,[35],100%
same,inhibition,[36],24.7%
same,residual activity,[37],97%
same,residual activity,[38],100%
same,residual activity,[39],100%
same,residual activity,[40],100%
same,residual activity,[41],93%
same,residual activity,[42],100%
same,residual activity,[43],100%
same,inhibition,[44],34.2%
